# In article PMC11446937, “Bacteria from the Amycolatopsis genus associated with a toxic bird secrete protective secondary metabolites” (Nature Communications, 2024):
# Assays:
# [1] = tested on: bacterial and fungal indicator strains; test: Disc-diffusion antimicrobial activity, indicator strains overall; assay type: cell-based; conditions: disc-diffusion assays of isolated compounds against indicator strains incl. K. rhizophila and C. albicans
# Experimental: For more experimental details, see Supplementary Methods and Supplementary Tables 16–18.
# Droplet-collapsing test of lipopetides.
# Pure compounds were dissolved in water (final concentration 10 mM). Then, 20 µl of the solutions were placed on a hydrophobic surface (parafilm ‘M’). Tensioactive properties were determined by the observation of collapsed […]
# 33,34 Tween-20 (10 mM) was used as tensioactive positive control. For better visualization, 0.0025% crystal violet was added to the droplet, having no effect on the […]
# Supplementary Figure 88. Droplet-collapsing assay testing the tensioactive properties of lipopeptides (n=3). […]
# epidermidis DSM103867, as well as the skin pathogenic yeast C. albicans SC5314. […] Antimicrobial activity was determined by measuring the inhibition zone surrounding the disc in mm. […]
# Pure compounds (1 mg/mL in DMSO or 50% MeOH) were tested for their antimicrobial activity against a variety of bacterial and fungal indicator strains: B. subtilis 6633 (Bs), S. aureus SG511 (Sa1), E. coli SG458 (Ec), P. aeruginosa K799/61 (Pa), S. aureus 134/94 (MRSA) (Sa2), E. faecalis 1528 (VRSA) (Ef), Mycobacterium vaccae 10670 (Mv), Sporobomyces salmonicolor 549 (Ss), C. albicans C.A. (Ca), and Penicillium notatum JP36 (Pn). […] Antimicrobial activity was determined by measuring the inhibition zone surrounding the disc in mm (n=3). […]
# [2] = tested on: C. albicans C.A.; test: Disc-diffusion antimicrobial assay, clinically relevant indicator strains; assay type: cell-based; conditions: Suppl. Table 17; disc diffusion; 1 mg/mL in DMSO, 50 µl (50 µg) per disc; Amph B 10 µg/mL (DMSO/H2O); DMSO solvent control 0; n=3
# Experimental: (§1) Disc-diffusion antimicrobial activity assays against clinically relevant indicator strains.
# (§2) Pure compounds (1 mg/mL in DMSO or 50% MeOH) were tested for their antimicrobial activity against a variety of bacterial and fungal indicator strains: B. subtilis 6633 (Bs), S. aureus SG511 (Sa1), E. coli SG458 (Ec), P. aeruginosa K799/61 (Pa), S. aureus 134/94 (MRSA) (Sa2), E. faecalis 1528 (VRSA) (Ef), Mycobacterium vaccae 10670 (Mv), Sporobomyces salmonicolor 549 (Ss), C. albicans C.A. (Ca), and Penicillium notatum JP36 (Pn). On each disc, 50 µl compound solution (50 µg) were applied. Antimicrobial activity was determined by measuring the inhibition zone surrounding the disc in mm (n=3).
# (§3) Bs: B. subtilis 663, Sa1: S. aureus SG511, Ec: E. coli SG458, Pa: P. aeruginosa K799/61, Sa2: S. aureus 134/94 (MRSA), Ef: E. faecalis 1528 (VRSA), Mv: M. vaccae 10670, Ss: S. salmonicolor 549, Ca: C. albicans C.A., Pn: P. notatum JP36. P: colonies in the inhibition zone, p: single colonies in the inhibition zone. A: no to low inhibition, n.t.: not tested.
# (§4) B. subtilis 663, Sa1: S. aureus SG511, Ec: E. coli SG458, Ca: C. albicans C.A., P: colonies in the inhibition zone, […]
# [3] = tested on: Penicillium notatum JP36; test: as above; assay type: cell-based; conditions: Suppl. Table 17, 1 mg/mL in DMSO, 50 µl (50 µg) per disc, Amph B 10 µg/mL (DMSO/H2O), DMSO solvent control itself 12P, n=3
# Experimental: as §1, §2, §3, §4
# [4] = tested on: Sporobomyces salmonicolor 549; test: as above; assay type: cell-based; conditions: Suppl. Table 17, 1 mg/mL in DMSO, 50 µl (50 µg) per disc, Amph B 10 µg/mL (DMSO/H2O), DMSO solvent control itself 13P, n=3
# Experimental: as §1, §2, §3, §4
# [5] = tested on: B. subtilis 6633; test: as above; conditions: Suppl. Table 17, 1 mg/mL in DMSO, 50 µl (50 µg) per disc, Cip 5 µg/mL (H2O/HCl), DMSO solvent control itself 12P, n=3
# [6] = tested on: S. aureus 134/94 (MRSA); test: as above; conditions: Suppl. Table 17, 1 mg/mL in DMSO, 50 µl (50 µg) per disc, Cip 5 µg/mL (H2O/HCl), DMSO solvent control 0, n=3
# [7] = tested on: Mycobacterium vaccae 10670; test: as above; conditions: Suppl. Table 17, 1 mg/mL in DMSO, 50 µl (50 µg) per disc, Cip 5 µg/mL (H2O/HCl), DMSO solvent control itself 11P, n=3
# [8] = tested on: E. coli SG458; test: as above; conditions: Suppl. Table 17, 1 mg/mL in DMSO, 50 µl (50 µg) per disc, Cip 5 µg/mL (H2O/HCl), DMSO solvent control itself 12P, n=3
# [9] = tested on: S. aureus SG511; test: as above; conditions: Suppl. Table 17, 1 mg/mL in DMSO, 50 µl (50 µg) per disc, Cip 5 µg/mL (H2O/HCl), DMSO solvent control itself 11P, n=3
# [10] = tested on: P. aeruginosa K799/61; conditions: Suppl. Table 17; disc diffusion; 1 mg/mL in DMSO, 50 µl (50 µg) per disc; Cip 5 µg/mL (H2O/HCl); DMSO solvent control itself 12P; n=3
# [11] = tested on: E. faecalis 1528; test: Disc-diffusion antimicrobial assay, clinically relevant indicator strains; conditions: Suppl. Table 17, 1 mg/mL in DMSO, 50 µl (50 µg) per disc, Cip 5 µg/mL (H2O/HCl), DMSO solvent control itself 12p, n=3
# [12] = tested on: urokinase (uPA); test: Fluorimetric protease inhibition assay; assay type: biochemical; conditions: 200 µM, 10 min, mean ± standard deviation, n=3
# [13] = tested on: K. rhizophila DSM11926; test: Disc-diffusion antimicrobial assay, ecologically relevant indicator strains; assay type: cell-based, Kocuria rhizophila; conditions: Suppl. Table 16, pure compounds 10 mg/mL in DMSO, 5 µl per disc, control Cip 5 µg/mL (HCl), DMSO control 0, n=1
# [14] = tested on: cathepsin L; test: Fluorimetric protease inhibition assay; assay type: biochemical; conditions: 200 µM, 10 min, mean ± standard deviation, n=3
# [15] = tested on: cruzain; test: Fluorimetric protease inhibition assay; assay type: biochemical, Trypanosoma cruzi; conditions: 200 µM, 10 min, mean ± standard deviation, n=3
# [16] = tested on: DENV2 NS2B-NS3; test: Fluorimetric protease inhibition assay; assay type: biochemical; conditions: 200 µM, 10 min, mean ± standard deviation, n=3
# [17] = tested on: P. monteilii DSM1388; test: Disc-diffusion antimicrobial assay, ecologically relevant indicator strains; assay type: cell-based, Pseudomonas monteilii; conditions: Suppl. Table 16, pure compounds 10 mg/mL in DMSO, 5 µl per disc, control Cip 5 µg/mL (HCl), DMSO control 0, n=1
# [18] = tested on: rhodesain; conditions: 200 µM
# [19] = tested on: SARS-CoV2 Mpro; conditions: 200 µM; fluorimetric, 10 min; mean ± standard deviation, n=3
# [20] = tested on: SARS-CoV PLpro; conditions: 200 µM; fluorimetric, 10 min; mean ± standard deviation, n=3
# [21] = tested on: cathepsin B; test: Fluorimetric protease inhibition assay; assay type: biochemical; conditions: 200 µM, 10 min, mean ± standard deviation, n=3
# [22] = tested on: ZIKV NS2B-NS3; conditions: 200 µM
# [23] = tested on: B. licheniformis DSM13; test: Disc-diffusion antimicrobial assay, ecologically relevant indicator strains; assay type: cell-based, Bacillus licheniformis; conditions: Suppl. Table 16, pure compounds 10 mg/mL in DMSO, 5 µl per disc, control Cip 5 µg/mL (HCl), DMSO control 0, n=1
# [24] = tested on: B. thuringiensis DSM104061; test: as above; assay type: cell-based, Bacillus thuringiensis; conditions: Suppl. Table 16, pure compounds 10 mg/mL in DMSO, 5 µl per disc, control Cip 5 µg/mL (HCl), DMSO control 0, n=1
# [25] = tested on: C. albicans SC5314; test: as above; assay type: cell-based, Candida albicans; conditions: Suppl. Table 16, pure compounds 10 mg/mL in DMSO, 5 µl per disc, control Amph B 10 µg/mL (DMSO/H2O), DMSO control 0, n=1
# [26] = tested on: sortase A (SrtA); conditions: 200 µM
compound,measurement,setting,value
"C[C@H]1CN2C(=O)/C=C/C=C/C=C/[C@@](C)(O)C(O[C@@H]3OC[C@@H](O)[C@H](O)[C@H]3N)\C=C/C=C/C=C/C=C\[C@@H]2[C@@H]1O (stereo partly shown) [Compound 8, ciromicin A, reference compound]",antimicrobial activity (in words),[1],antifungal and antibacterial effects
Demiguisin [Compound 7],"inhibition zone, Ca",[2],0 mm
same,"inhibition zone, Pn",[3],0 mm
same,"inhibition zone, Ss",[4],0 mm
same,"inhibition zone, Bs",[5],0 mm
same,"inhibition zone, Sa2",[6],0 mm
same,"inhibition zone, Mv",[7],0 mm
same,"inhibition zone, Ec",[8],0 mm
same,"inhibition zone, Sa1",[9],0 mm
same,"inhibition zone, Pa",[10],0 mm
same,antimicrobial activity (in words),[1],no antimicrobial effects
same,"inhibition zone, Ef",[11],0 mm
Pachycephalamide F [Compound 6],"Protease inhibition rate, uPA",[12],0 ± 0%
same,"inhibition zone, Kr",[13],10 mm
same,"inhibition zone, Ca",[2],0 mm
same,"inhibition zone, Pn",[3],13p
same,"inhibition zone, Ss",[4],23p
same,"Protease inhibition rate, Cathepsin L",[14],58.30 ± 6.91%
same,"Protease inhibition rate, Cruzain",[15],60.52 ± 3.73%
same,"Protease inhibition rate, DENV2",[16],18.47 ± 1.66%
same,"inhibition zone, Bs",[5],0 mm
same,"inhibition zone, Sa2",[6],0 mm
same,"inhibition zone, Pm",[17],0 mm
same,"Protease inhibition rate, Rhodesain",[18],53.72 ± 0.31
same,"Protease inhibition rate, Mpro (SARS-CoV2)",[19],6.92 ± 5.97%
same,"inhibition zone, Mv",[7],13p
same,"inhibition zone, Ec",[8],13P
same,"Protease inhibition rate, PLpro (SARS-CoV)",[20],0 ± 0%
same,"inhibition zone, Sa1",[9],0 mm
same,"inhibition zone, Pa",[10],18P
same,"Protease inhibition rate, Cathepsin B",[21],57.57 ± 11.52%
same,"Protease inhibition rate, ZIKV",[22],22.62 ± 1.19
same,"inhibition zone, Bl",[23],0 mm
same,"inhibition zone, Bt",[24],0 mm
same,"inhibition zone, Ca2",[25],0 mm
same,"Protease inhibition rate, SrtA",[26],20.39 ± 3.94
same,"inhibition zone, Ef",[11],13p
